Data set [1] is described as follows: in vivo. As to conditions: rat, iv, 20 mg/kg. How it is done: (§1) DAI in the form of a suspension in saline was administered to the rats at the doses of 20 mg/kg (i.v.) and 50 mg/kg (i.p.).
Blood samples were collected via a retro-orbital puncture at 15 min, 30 min, 3 h, 5 h, and 24 h after i.v. administration. The first two blood samples (at 15 min and 30 min) were withdrawn while the rats were still under general anesthesia. For the later time-points, the blood was taken under a short isoflurane anesthesia. One mL of saline was administered i.p. after every blood withdrawal to compensate the loss of water. The rats were sacrificed by decapitation 24 h after compound administration. All blood samples were centrifuged to obtain serum. The serum samples were frozen in a freezer at −80 °C.
(§2) PK parameters were calculated using a non-compartmental approach from the average concentration values, using Phoenix WinNonlin software (Certara, St. Louis, MO, USA). The first-order elimination rate constant (λz) was calculated by linear regression of log concentration versus time. The area under the mean serum and tissue concentration versus time curve (AUC0⟶t) was calculated from zero to the last concentration point using the linear trapezoidal rule as (1) AUC0→t=∑i=1nCi+Ci+1/2·(ti+1−ti) where Ci is the concentration of the compound.
(§3) The area under the first-moment curve (AUMC0⟶t) was estimated by calculation of the total area under the first-moment curve:(2) AUMC0→t=∑i=1n((ti·Ci+ti+1·Ci+1)/2)·(ti+1−ti) where ti is the […].
(§4) Mean residence time (MRT) was calculated as (3) MRT=AUMC0→t/AUC0→t
Systemic clearance (Cl) was calculated as (4) Cl=Div/AUC0→t
The volume of distribution at steady state (Vss) was calculated as (5) Vss=Div⋅AUMC0→t/(AUC0→t)^2

For data set [2] the following is noted: healthy premenopausal women, cited from earlier work.
Data set [3] can be described thus: in vivo. Particulars: for tmax: DAI in suspension, i.p. 50 mg/kg, rat serum. How it is done:
as §1
The second study was conducted in 48 animals to assess DAI tissue penetration and bioavailability. […] Animals were deeply anaesthetized by i.p. injections of 50 mg/kg ketamine plus 8 mg/kg xylazine before sacrifice. First, the blood was collected by retro-orbital puncture, and the blood samples were centrifuged to obtain serum. The serum samples were frozen in a freezer at −80 °C. A whole-body saline perfusion was then performed after wide laparotomy when the heart was exposed, and the tip of the needle was inserted into the left ventricle and the right atrium was cut to allow efflux of blood. This procedure allowed the blood from all tissues to be washed out to determine the amount of DAI in the tissue, excluding its content in the blood. Following the animals’ euthanasia, the following samples were collected: whole brain, whole eyes, liver lobe, abdominal fat, one kidney, whole spleen, one testis, and selected parts of heart and lungs. The brain was cut between hemispheres in halves; one half was weighed, inserted into 2 mL of SDS-tris lysing buffer (100 mM tris buffer, 10% glycerol, 1% sodium dodecyl sulfate), and homogenized with a tissue homogenizer. The other half of the brain, the homogenates, and all other tissue samples collected were immediately shock-frozen in liquid nitrogen and stored at −80 °C for future analysis.
as §2, §3, §4

[4] abbreviates: male, rat, in vivo, ip, 50 mg/kg.

By AUC is commonly meant the area under the concentration-time curve, a measure of exposure. Read a low AUC as low exposure. Broadly, the MRT is the average time that molecules of a dose stay in the body. By clearance is commonly meant a measure of how efficiently the substance is removed, as volume per time. The low end stands for inefficient removal, the high end for efficient removal. For orientation: half-life means the time in which the quantity being followed falls by half. A lower half-life goes with fast loss. Usually bioavailability stands for the share of a dose that reaches the circulation, judged against a reference dose that is usually intravenous. A lower bioavailability goes with little systemic uptake. For orientation: CL/F means the apparent clearance, not corrected for the fraction that reaches the circulation. A word on the Vd/F: it is the volume of distribution divided by bioavailability. One may read the Cmax as the highest concentration seen after dosing.

Where two headings read alike, the source gives them in different places.

In data set [1], `O=c1c(-c2ccc(O)cc2)coc2cc(O)ccc12` [DAI in Suspension, 7-hydroxy-3-(4-hydroxyphenyl)-4H-chromen-4-one] had an exposure (AUC) of 1.58 µg·h/mL, a C0 of 6.16 µg/mL, a mean residence time MRT of 4.29 h and a clearance of 12.6 L/h/kg. This molecule gave a half-life in data set [1] of 3.83 h. For the same molecule, the “Bioavailability of DAI” value in data set [2] (first value of '5.15% vs. 8.7%', at higher intakes) is 5.15%. Moreover, the “Bioavailability of DAI” value in data set [2] (second (comparison) value of '5.15% vs. 8.7%') was 8.7%. The molecule further had a tmax in data set [3] (50 mg/kg) of 0.75 h. In data set [3] (male, rat, in vivo), this molecule came in with a bioavailability of 28.2%. In data set [3] (setting [4]), this molecule gave an AUC of 1.11 µg·h/mL, a CL/F of 46.5 L/h/kg, a mean residence time MRT of 3.63 h and a Vd/F of 220 L/kg. In addition, in data set [3] (setting [4]), the half-life came out at 3.41 h. Further, the peak level in data set [3] (male, rat, in vivo, ip, 50 mg/kg, Cmax) (Cmax) was 0.173 µg/mL. The tmax in data set [3] (male, rat, in vivo, ip, 50 mg/kg, tmax) is no more than 0.75 h.

The record behind these values is publication PMC7076374, “Improved Pharmacokinetics and Tissue Uptake of Complexed Daidzein in Rats” (Pharmaceutics, 2020).
